{"source": "ChEMBL document CHEMBL1250536", "about": "“Identification of small molecule inhibitors of telomerase activity through transcriptional regulation of hTERT and calcium induction pathway in human lung adenocarcinoma A549 cells” (2010)", "key": {"[1]": {"target": "Telomerase reverse transcriptase (Homo sapiens) (UniProt O14746)", "sequence (O14746 whole entry)": "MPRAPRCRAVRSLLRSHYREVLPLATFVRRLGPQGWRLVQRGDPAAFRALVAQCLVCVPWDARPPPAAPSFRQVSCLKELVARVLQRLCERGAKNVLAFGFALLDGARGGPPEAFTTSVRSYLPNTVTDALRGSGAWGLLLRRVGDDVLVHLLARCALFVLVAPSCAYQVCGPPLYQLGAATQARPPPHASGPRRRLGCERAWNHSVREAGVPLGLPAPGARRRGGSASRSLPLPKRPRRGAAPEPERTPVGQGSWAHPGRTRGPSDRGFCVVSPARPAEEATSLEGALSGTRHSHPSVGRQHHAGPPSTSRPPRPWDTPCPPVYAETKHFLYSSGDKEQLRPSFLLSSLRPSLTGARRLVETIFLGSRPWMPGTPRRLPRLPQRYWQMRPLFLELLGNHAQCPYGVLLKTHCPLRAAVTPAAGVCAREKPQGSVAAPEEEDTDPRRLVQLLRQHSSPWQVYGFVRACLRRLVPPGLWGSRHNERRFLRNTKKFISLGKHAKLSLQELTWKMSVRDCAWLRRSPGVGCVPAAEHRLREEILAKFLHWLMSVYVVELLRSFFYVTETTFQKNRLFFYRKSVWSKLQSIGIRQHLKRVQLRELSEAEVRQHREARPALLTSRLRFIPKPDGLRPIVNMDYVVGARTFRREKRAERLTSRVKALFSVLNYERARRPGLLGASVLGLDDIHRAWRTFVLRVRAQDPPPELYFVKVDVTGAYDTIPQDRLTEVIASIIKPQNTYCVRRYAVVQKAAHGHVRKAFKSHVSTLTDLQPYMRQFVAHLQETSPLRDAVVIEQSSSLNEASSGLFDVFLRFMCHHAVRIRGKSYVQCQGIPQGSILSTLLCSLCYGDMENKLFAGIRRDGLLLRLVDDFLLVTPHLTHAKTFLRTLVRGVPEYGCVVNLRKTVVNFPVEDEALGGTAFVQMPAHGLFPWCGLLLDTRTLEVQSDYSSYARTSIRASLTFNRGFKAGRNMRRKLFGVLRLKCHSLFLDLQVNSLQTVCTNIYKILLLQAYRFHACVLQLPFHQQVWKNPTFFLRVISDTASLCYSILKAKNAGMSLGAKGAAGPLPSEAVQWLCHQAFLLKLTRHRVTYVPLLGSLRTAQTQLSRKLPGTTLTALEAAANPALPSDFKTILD", "assay": "Inhibition of telomerase in human A549 cells at 25 uM after 24 hrs by TRAP assay", "type": "cell-based"}, "[2]": {"test_system": "A549", "assay": "Reduction of GADD153 mRNA expression in human A549 cells at up to 50 uM after 6 hrs by RT-PCR analysis", "type": "functional, cell-based"}, "[3]": {"test_system": "A549", "assay": "Reduction of hTERT protein expression in human A549 cells at 25 uM after 24 hrs by immunofluorescence assay", "type": "functional, cell-based"}, "[4]": {"test_system": "A549", "assay": "Reduction of colony formation in human A549 cells at 12.5 uM after 24 hrs by anchorage-independence cell growth assay relative to control", "type": "functional", "design": "scale not given: the % may be the effect or the level left"}, "[5]": {"test_system": "A549", "assay": "Reduction of hTR mRNA expression in human A549 cells at up to 50 uM after 6 hrs by RT-PCR analysis", "type": "functional, cell-based"}, "[6]": {"target": "Telomerase reverse transcriptase (Homo sapiens) (UniProt O14746)", "assay": "Inhibition of telomerase in human A549 cells after 24 hrs by TRAP assay", "type": "cell-based"}, "[7]": {"target": "Telomerase reverse transcriptase (Homo sapiens) (UniProt O14746)", "assay": "Inhibition of telomerase in human A549 cells at 25 uM after 24 hrs by TRAP assay in presence of 50 uM of PI3 K inhibitor LY-294002 pretreated for 1 hr", "type": "cell-based"}, "[8]": {"test_system": "A549", "assay": "Reduction of hTERT protein expression in human A549 cells at 25 uM after 24 hrs by immunofluorescence assay in presence of intracellular calcium chelator BAPTA-AM pretreated for 1 hr", "type": "functional, cell-based"}, "[9]": {"target": "Telomerase reverse transcriptase (Homo sapiens) (UniProt O14746)", "assay": "Inhibition of telomerase in human A549 cells at 25 uM after 24 hrs by TRAP assay in presence of 20 uM of ERK inhibitor PD-98059 pretreated for 1 hr", "type": "cell-based"}, "[10]": {"target": "Telomerase reverse transcriptase (Homo sapiens) (UniProt O14746)", "assay": "Inhibition of telomerase in human A549 cells at 25 uM after 24 hrs by TRAP assay in presence of 20 uM of 26S proteasome inhibitor MG132 pretreated for 1 hr", "type": "cell-based"}, "[11]": {"test_system": "A549", "assay": "Reduction of hTR mRNA expression in human A549 cells at 20 uM after 6 hrs by RT-PCR analysis", "type": "functional, cell-based"}, "[12]": {"test_system": "A549", "assay": "Reduction of hTERT mRNA expression in human A549 cells at 50 uM after 6 hrs by RT-PCR analysis", "type": "functional", "design": "scale not given: the % may be the effect or the level left"}, "[13]": {"target": "Telomerase reverse transcriptase (Homo sapiens) (UniProt O14746)", "assay": "Inhibition of telomerase in human A549 cells assessed as increase of intracellular calcium release after 24 hrs using Fluo-3 AM staining by microscopic analysis", "type": "cell-based"}, "[14]": {"test_system": "A549", "assay": "Translocation of hTERT from nuclei to cytoplasm in human A549 cells at 25 uM after 24 hrs by immunofluorescence assay", "type": "functional, cell-based"}, "[15]": {"target": "Telomerase reverse transcriptase (Homo sapiens) (UniProt O14746)", "assay": "Inhibition of telomerase in human A549 cells assessed as increase of intracellular calcium release after 24 hrs using Fluo-3 AM staining by microscopic analysis in presence of BAPTA-AM pretreated for 1 hr", "type": "cell-based"}, "[16]": {"target": "Telomerase reverse transcriptase (Homo sapiens) (UniProt O14746)", "assay": "Inhibition of telomerase in human A549 cells at 25 uM after 24 hrs by TRAP assay in presence of 20 uM of intracellular calcium chelator BAPTA-AM pretreated for 1 hr", "type": "cell-based"}, "[17]": {"test_system": "A549", "assay": "Reduction of colony formation in human A549 cells at 6.25 uM after 24 hrs by anchorage-independence cell growth assay relative to control", "type": "functional", "design": "scale not given: the % may be the effect or the level left"}, "[18]": {"test_system": "A549", "assay": "Cytotoxicity against human A549 cells assessed as reduction of cell proliferation after 24 hrs by MTS assay", "type": "functional, cell-based"}, "[19]": {"target": "Telomerase reverse transcriptase (Homo sapiens) (UniProt O14746)", "assay": "Inhibition of telomerase in human A549 cells at 25 uM after 24 hrs by TRAP assay in presence of 10 uM of MEK inhibitor U0126 pretreated for 1 hr", "type": "cell-based"}, "[20]": {"test_system": "A549", "assay": "Reduction of hTERT mRNA expression in human A549 cells after 6 hrs by RT-PCR analysis", "type": "functional, cell-based"}, "[21]": {"test_system": "A549", "assay": "Cytotoxicity against human A549 cells assessed as reduction of cell proliferation at 50 uM after 24 hrs by MTS assay", "type": "functional", "design": "scale not given: the % may be the effect or the level left"}, "[22]": {"target": "Telomerase reverse transcriptase (Homo sapiens) (UniProt O14746)", "assay": "Inhibition of telomerase in human A549 cells at 25 uM after 24 hrs by TRAP assay in presence of 20 nM of nuclear export inhibitor leptomycin B pretreated for 1 hr", "type": "cell-based"}, "[23]": {"target": "Telomerase reverse transcriptase (Homo sapiens) (UniProt O14746)", "assay": "Inhibition of telomerase in human A549 cells at 25 uM by TRAP assay", "type": "cell-based", "settings": "TDE = time-dependent effect"}, "[24]": {"test_system": "A549", "assay": "Reduction of hTERT protein expression in human A549 cells after 6 hrs by Western blotting", "type": "functional, cell-based"}, "[25]": {"target": "Telomerase reverse transcriptase (Homo sapiens) (UniProt O14746)", "assay": "Inhibition of telomerase in human A549 cells at 25 uM after 24 hrs by TRAP assay in presence of 50 uM of MAPK inhibitor SB-203580 pretreated for 1 hr", "type": "cell-based"}, "[26]": {"test_system": "A549", "assay": "Reduction of colony formation in human A549 cells at 25 uM after 24 hrs by anchorage-independence cell growth assay relative to control", "type": "functional", "design": "scale not given: the % may be the effect or the level left"}, "[27]": {"test_system": "A549", "assay": "Reduction of hTERT mRNA expression in human A549 cells after 6 hrs by RT-PCR analysis in presence of 20 uM of intracellular calcium chelator BAPTA-AM pretreated for 1 hr", "type": "functional, cell-based"}}, "note": "Activity calls are given as the source filed them. No cut-off for these calls is given here."}
{"smiles": "COc1c(O)cc(C(=O)O)cc1O", "values": [{"measurement": "inhibition", "setting": "[1]", "value": "inactive"}]}
{"smiles": "COc1cc(/C=C/C(=O)c2cc(OC)c(OC)c(OC)c2)cc(OC)c1OC", "values": [{"measurement": "inhibition", "setting": "[1]", "value": "Active"}]}
{"smiles": "COc1cc(OC)c2c(c1)O[C@H](c1ccccc1)CC2=O", "values": [{"measurement": "inhibition", "setting": "[1]", "value": "inactive"}]}
{"smiles": "COc1cc(O)c2c(c1OC)O[C@H](c1ccccc1)CC2=O", "values": [{"measurement": "inhibition", "setting": "[1]", "value": "inactive"}]}
{"smiles": "C[C@H]1O[C@H](Oc2cc(O)c3c(=O)c(O[C@H]4O[C@H](C)[C@@H](O[C@H]5O[C@H](CO)[C@@H](O)[C@H](O)[C@H]5O)[C@H](O)[C@@H]4O)c(-c4ccc(O)cc4)oc3c2)[C@@H](O)[C@@H](O)[C@@H]1O", "values": [{"measurement": "inhibition", "setting": "[1]", "value": "inactive"}]}
{"smiles": "COC[C@H](Cc1ccc(OC)c(OC)c1)[C@H](COC)Cc1ccc(OC)c(OC)c1", "values": [{"measurement": "inhibition", "setting": "[1]", "value": "inactive"}]}
{"smiles": "COc1cc(C(=O)/C=C/c2ccc(N(C)C)cc2)cc(OC)c1OC", "values": [{"measurement": "inhibition", "setting": "[1]", "value": "inactive"}]}
{"smiles": "COc1cc(O)c(C(=O)/C=C/c2cccc(OC)c2OC)c(OC)c1", "values": [{"measurement": "Activity", "setting": "[2]", "value": "inactive"}, {"measurement": "Activity", "setting": "[3]", "value": "Active"}, {"measurement": "Activity", "setting": "[4]", "value": 96, "unit": "%"}, {"measurement": "Activity", "setting": "[5]", "value": "inactive"}, {"measurement": "inhibition", "setting": "[6]", "value": "Dose-dependent effect"}, {"measurement": "inhibition", "setting": "[7]", "value": "Active"}, {"measurement": "Activity", "setting": "[8]", "value": "inactive"}, {"measurement": "inhibition", "setting": "[9]", "value": "Active"}, {"measurement": "inhibition", "setting": "[10]", "value": "Active"}, {"measurement": "Activity", "setting": "[11]", "value": "inactive"}, {"measurement": "Activity", "setting": "[12]", "value": 92, "unit": "%"}, {"measurement": "inhibition", "setting": "[13]", "value": "Dose-dependent effect"}, {"measurement": "Activity", "setting": "[14]", "value": "inactive"}, {"measurement": "inhibition", "setting": "[15]", "value": "inactive"}, {"measurement": "inhibition", "setting": "[16]", "value": "inactive"}, {"measurement": "Activity", "setting": "[17]", "value": 23, "unit": "%"}, {"measurement": "Activity", "setting": "[18]", "value": "Dose-dependent effect"}, {"measurement": "inhibition", "setting": "[19]", "value": "Active"}, {"measurement": "Activity", "setting": "[20]", "value": "Dose-dependent effect"}, {"measurement": "Activity", "setting": "[21]", "value": 59, "unit": "%"}, {"measurement": "inhibition", "setting": "[1]", "value": "Active"}, {"measurement": "inhibition", "setting": "[22]", "value": "Active"}, {"measurement": "inhibition", "setting": "[23]", "value": "tde"}, {"measurement": "Activity", "setting": "[24]", "value": "Dose-dependent effect"}, {"measurement": "inhibition", "setting": "[25]", "value": "Active"}, {"measurement": "Activity", "setting": "[26]", "value": 70, "unit": "%"}, {"measurement": "Activity", "setting": "[27]", "value": "inactive"}]}
{"smiles": "COc1ccc(/C=C2/COc3cc(O)ccc3C2=O)cc1", "values": [{"measurement": "inhibition", "setting": "[1]", "value": "Active"}]}
{"smiles": "COc1cccc(/C=C/C(=O)c2cc(OC)c(OC)c(OC)c2)c1OC", "values": [{"measurement": "inhibition", "setting": "[1]", "value": "Active"}]}
{"smiles": "COc1ccc(/C=C/C(=O)c2cc(OC)c(OC)c(OC)c2)cc1OC", "values": [{"measurement": "inhibition", "setting": "[1]", "value": "Active"}]}
